Data from patent US6403765B1, “Truncated Apaf-1 and methods of use thereof” (Thomas Jefferson University, priority 1998, dated 2002).
Entries after “also recorded” stand apart in the source; their conditions may differ. Blank lines part the entries; values can stand above or below the molecule they belong to.

Tests used:
procaspase-9 = test: Cytochrome c/dATP-dependent processing of procaspase-9 in 293 cellular S100 extract; format: biochemical; settings: 293 S100 extract, cytochrome c plus dATP
Method: To study processing of procaspase-9 in the cytochrome c/Apaf-1-dependent pathway, WT and the Asp to Ala mutants of procaspase-9 were incubated with a cellular S100 extract in the presence or absence of cytochrome c and dATP. […] Samples were then analyzed by SDS-PAGE and autoradiography.
(§1) To confirm this, a time course analysis of procaspase-9 and procaspase-3 processing was performed in cellular S100 extracts from 293 and MCF-7 cells. […] At the indicated times the reactions were stopped and then analyzed by SDS-PAGE and autoradiography (procaspase-9 panels) or Western blot analysis using anti-caspase-3 p20 polyclonal antibody (procaspase-3 panels). Small arrows indicate a non-specific band detected by the anti-caspase-3 antibody.
(§2) In FIG. 18, 293 cellular S100 extracts supplemented with ^35S-labeled procaspase-9 (upper panel) or procaspase-3 (lower panel) were incubated with (lanes 3-7) or without (lane 2) cytochrome c plus dATP in the presence of increasing amounts of purified recombinant procaspase-9-C287A mutant for 1 hour at 30° C. and then analyzed by SDS-PAGE and autoradiography. […] Consequently, the Apaf-1/caspase-9 pathway appears to be a central apoptotic pathway, on which most apoptotic signals converge.

procaspase-3 = test: Cytochrome c/dATP-dependent processing of procaspase-3 in 293 cellular S100 extract; format: biochemical; settings: cytochrome c/dATP
Method: as §1
(§3) In FIG. 8, ^35S-labeled procaspase-3, -6 or -7 were incubated with S100 extracts from 293 cells in the presence or absence of cytochrome c/dATP or DEVD-CHO, or both and analyzed by SDS-PAGE followed by autoradiography. However, when DEVD-CHO was included, processing of procaspase-6 (lane 6), but not procaspase-3 (lane 3) or -7 (lane 9) was inhibited. […] Also, since caspase-7 cannot process procaspase-6 (Srinivasula et al., J. Biol. Chem. 271:27099-27106, 1996), caspase-3 is the one responsible for processing of procaspase-6 in the cytochrome c plus dATP-dependent pathway.
as §2

procaspase-6 = test: Cytochrome c/dATP-dependent processing of procaspase-6 in 293 cellular S100 extract; format: biochemical; settings: 35S-labeled procaspase-6, 293 S100 extract, FIG. 8
Method: as §3

procaspase-7 = test: Cytochrome c/dATP-dependent processing of procaspase-7 in 293 cellular S100 extract; format: biochemical; settings: 35S-labeled procaspase-7, 293 S100 extract, FIG. 8
Method: as §3

T7-tagged Apaf-530 = target: T1, T7-tagged Apaf-530 (human, UniProt O14727 1-541); test: co-immunoprecipitation from co-transfected 293 cells: anti-Flag IP, anti-T7 immunoblot
T1 construct: Expressed in co-transfected 293 cells; also called T7-Apaf-530
T1 sequence: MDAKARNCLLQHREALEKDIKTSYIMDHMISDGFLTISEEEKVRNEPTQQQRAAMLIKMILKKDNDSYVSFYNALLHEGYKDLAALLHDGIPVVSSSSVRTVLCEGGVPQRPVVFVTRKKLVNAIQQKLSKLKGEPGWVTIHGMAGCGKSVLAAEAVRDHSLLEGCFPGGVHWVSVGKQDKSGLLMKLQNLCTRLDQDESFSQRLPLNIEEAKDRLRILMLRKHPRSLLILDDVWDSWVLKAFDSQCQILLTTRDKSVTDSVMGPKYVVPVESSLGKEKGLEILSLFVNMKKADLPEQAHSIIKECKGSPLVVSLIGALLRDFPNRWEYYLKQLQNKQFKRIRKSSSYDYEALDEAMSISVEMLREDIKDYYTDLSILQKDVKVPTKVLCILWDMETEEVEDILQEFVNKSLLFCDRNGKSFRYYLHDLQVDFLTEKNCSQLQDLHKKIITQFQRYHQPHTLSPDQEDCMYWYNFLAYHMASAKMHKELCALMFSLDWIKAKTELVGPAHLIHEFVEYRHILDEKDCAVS
Method: (§4) The immunoprecipitates were analyzed by Western blotting with an anti-T7 antibody.
(§5) After 36 hours, extracts were prepared and immunoprecipitated with a monoclonal antibody to the Flag epitope. The immunoprecipitates (upper panel) were analyzed by SDS-PAGE and immunoblotted with a horseradish peroxides-conjugated T7 antibody.
(§6) In vivo interaction experiments between Apaf-1 variants and Bcl-x_L were performed. […] After 36 hours, extracts were prepared and immunoprecipitated with a monoclonal antibody to the Flag epitope. The immunoprecipitates (FIG. 16, upper panel) were analyzed by SDS-PAGE and immunoblotted with a horseradish peroxidase-conjugated T7 antibody.

T7-tagged Bcl-xL = target: T2, T7-tagged Bcl-xL (UniProt Q07817 1-233); test: as above
T2 construct: Expressed in co-transfected 293 cells
T2 sequence (Q07817 whole entry): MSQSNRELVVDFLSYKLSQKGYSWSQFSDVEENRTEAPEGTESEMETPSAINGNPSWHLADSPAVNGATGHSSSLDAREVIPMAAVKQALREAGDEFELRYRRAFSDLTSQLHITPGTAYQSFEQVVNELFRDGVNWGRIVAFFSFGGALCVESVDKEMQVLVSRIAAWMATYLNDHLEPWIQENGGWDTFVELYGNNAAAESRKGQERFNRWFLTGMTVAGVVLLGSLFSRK
Method: as §4, §5, §6

[1] = target: T3, Apaf-1 (endogenous, in 293 cellular S100 extract, with cytochrome c plus dATP)
T3 chain: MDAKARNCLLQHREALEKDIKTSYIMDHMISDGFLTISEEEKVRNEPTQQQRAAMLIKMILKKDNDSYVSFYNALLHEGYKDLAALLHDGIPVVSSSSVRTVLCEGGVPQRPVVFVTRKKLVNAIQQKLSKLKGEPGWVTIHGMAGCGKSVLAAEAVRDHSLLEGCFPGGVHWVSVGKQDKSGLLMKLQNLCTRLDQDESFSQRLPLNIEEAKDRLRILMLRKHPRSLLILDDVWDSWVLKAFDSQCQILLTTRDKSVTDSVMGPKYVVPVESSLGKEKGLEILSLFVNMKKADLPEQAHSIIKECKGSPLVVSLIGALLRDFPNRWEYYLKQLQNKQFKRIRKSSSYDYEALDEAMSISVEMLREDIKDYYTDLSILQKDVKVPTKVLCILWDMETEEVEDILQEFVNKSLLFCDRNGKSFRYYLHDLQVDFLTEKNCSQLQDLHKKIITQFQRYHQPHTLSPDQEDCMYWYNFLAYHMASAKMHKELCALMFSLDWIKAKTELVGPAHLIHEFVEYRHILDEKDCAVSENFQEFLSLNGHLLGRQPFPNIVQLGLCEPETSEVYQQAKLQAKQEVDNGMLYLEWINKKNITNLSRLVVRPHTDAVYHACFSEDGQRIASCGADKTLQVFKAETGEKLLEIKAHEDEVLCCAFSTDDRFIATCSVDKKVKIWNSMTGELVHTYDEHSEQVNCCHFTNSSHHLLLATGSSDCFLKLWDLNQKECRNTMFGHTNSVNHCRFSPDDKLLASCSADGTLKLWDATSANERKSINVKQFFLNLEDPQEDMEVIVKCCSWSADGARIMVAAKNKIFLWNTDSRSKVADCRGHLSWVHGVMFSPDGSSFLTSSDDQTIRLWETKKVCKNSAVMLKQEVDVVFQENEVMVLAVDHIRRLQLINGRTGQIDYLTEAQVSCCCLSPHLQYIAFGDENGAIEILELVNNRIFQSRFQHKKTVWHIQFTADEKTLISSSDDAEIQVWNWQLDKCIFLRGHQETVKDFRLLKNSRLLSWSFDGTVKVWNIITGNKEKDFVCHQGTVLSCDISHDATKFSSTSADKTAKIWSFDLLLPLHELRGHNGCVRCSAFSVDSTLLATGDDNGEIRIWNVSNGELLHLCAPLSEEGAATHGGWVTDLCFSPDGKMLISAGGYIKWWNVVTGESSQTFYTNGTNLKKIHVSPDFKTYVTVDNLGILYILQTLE

[2] = target: T4, recombinant Apaf-530 (Ni2+-affinity purified, bacterially expressed, C-terminal His6 tag)
T4 chain: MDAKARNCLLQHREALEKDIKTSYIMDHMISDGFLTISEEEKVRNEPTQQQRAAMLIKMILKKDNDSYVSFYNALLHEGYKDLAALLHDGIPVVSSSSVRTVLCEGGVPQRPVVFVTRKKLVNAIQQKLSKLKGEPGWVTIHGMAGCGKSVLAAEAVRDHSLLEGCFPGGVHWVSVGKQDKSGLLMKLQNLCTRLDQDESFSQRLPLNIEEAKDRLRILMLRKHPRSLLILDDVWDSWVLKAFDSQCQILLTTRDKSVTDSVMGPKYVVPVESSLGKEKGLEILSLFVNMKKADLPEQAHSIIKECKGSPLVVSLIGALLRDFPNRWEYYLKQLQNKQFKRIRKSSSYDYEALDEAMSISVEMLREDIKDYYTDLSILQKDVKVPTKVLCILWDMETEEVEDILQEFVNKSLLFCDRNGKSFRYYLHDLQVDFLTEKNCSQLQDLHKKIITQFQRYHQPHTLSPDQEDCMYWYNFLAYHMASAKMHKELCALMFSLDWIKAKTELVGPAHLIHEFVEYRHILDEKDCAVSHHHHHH

[3] = 293 S100 extract, Western blot, FIG. 5

inhibition of procaspase-9 processing at Asp315 (autocatalytic generation of p35 fragment) (procaspase-9): not and did not block
inhibition of processing of procaspase-3 (procaspase-3; 35S-labeled procaspase-3, 293 S100 extract, FIG. 8): not
effect on processing of procaspase-3 (procaspase-3; [3]): slightly attenuated
inhibition of autoconversion of caspase-3-p20 to p19 (procaspase-3; [3]): blocked
inhibition of processing of procaspase-6 (procaspase-6): inhibited
inhibition of processing of procaspase-7 (procaspase-7): not
Molecule: Asp-Glu-Val-Asp-aldehyde [DEVD-CHO]
inhibition of procaspase-9 processing at Asp330 (generation of p37 fragment) (procaspase-9): sensitive to inhibition; also recorded: blocked

binding result (T7-tagged Apaf-530): no binding
binding result (T7-tagged Bcl-xL): no binding
B1: Flag-tagged Apaf-97 (other, not shown: small tags and cut ends)
chain: MDAKARNCLLQHREALEKDIKTSYIMDHMISDGFLTISEEEKVRNEPTQQQRAAMLIKMILKKDNDSYVSFYNALLHEGYKDLAALLHDGIPVVSSS
notes: Expressed in co-transfected 293 cells; also called Flag-Apaf-97

B2: purified recombinant procaspase-9-C287A mutant (protein)
chain: MDEADRRLLRRCRLRLVEELQVDQLWDALLSRELFRPHMIEDIQRAGSGSRRDQARQLIIDLETRGSQALPLFISCLEDTGQDMLASFLRTNRQAAKLSKPTLENLTPVVLRPEIRKPEVLRPETPRPVDIGSGGFGDVGALESLRGNADLAYILSMEPCGHCLIINNVNFCRESGLRTRTGSNIDCEKLRRRFSSLHFMVEVKGDLTAKKMVLALLELAQQDHGALDCCVVVILSHGCQASHLQFPGAVYGTDGCPVSVEKIVNIFNGTSCPSLGGKPKLFFIQAAGGEQKDHGFEVASTSPEDESPGSNPEPDATPFQEGLRTFDQLDAISSLPTPSDIFVSYSTFPGFVSWRDPKSGSWYVETLDDIFEQWAHSEDLQSLLLRVANAVSVKGIYKQMPGCFNFLRKKLFFKTS
cytochrome c/dATP-induced activation of procaspase-9 and procaspase-3 in the 293 S100 extract [1]: able to attenuate cytochrome c/dATP-induced activation of procaspase-9 and procaspase-3 in the 293 S100 extract in a dose-dependent manner
Apaf-530-induced activation of procaspase-9 in the in vitro reconstituted system [2]: A similar result was also obtained with the Apaf-530-induced activation of procaspase-9 in the in vitro reconstituted system (data not shown)
